According to patent US9562021B2, “Histone deacetylase inhibitors and compositions and methods of use thereof” (CHDI Foundation, Inc., priority 2013, dated 2017):
Like-named read-outs stand apart in the source and are kept apart here.

Legend:
[1] = PK study (iv and po 10 mg/kg), plasma, brain and muscle; format: in vivo; conditions: for clearance: read-out: Clearance (CLp) (converted); for Vd: read-out: Volume of Distribution at Steady State (Vdss)
HDAC4 [2] = target: T1, HDAC4 (Homo sapiens, UniProt P56524); experiment: HDAC4 (bioch) IC50; format: biochemical
[3] = Hepatic microsomal stability, mouse; format: in vitro ADME; conditions: mouse liver microsomes
[4] = MDCK apparent permeability (Papp A>B); format: in vitro ADME; conditions: dog, pH 7.4
HDAC4 [5] = target: T1, HDAC4; experiment: HDAC4 (cell) IC50; format: cell-based; conditions: Table 3
Boc-Lys(Ac) = Boc-Lys(Ac) IC50; format: cell-based
[6] = test system: cellular histone deacetylase activity in Jurkat E6-1 cells; experiment: Inhibition of cellular HDAC activity, Boc-Lys(Tfa)-AMC substrate; format: cell-based; conditions: Homo sapiens, Class IIa selective substrate
Description: The potency of exemplifying compounds described herein is quantified by measuring the cellular histone deacetylase enzymatic activity using the Class IIa selective substrate, Boc-Lys(Tfa)-AMC. After penetration in Jurkat E6-1 cells, the substrate is deacetylated to Boc-Lys-AMC. After cell lysis and cleavage by trypsin, the fluorophore AMC is released from the deacetylated substrate only. The fluoresence of the sample is directly related to the histone deacetylase activity in the sample.
Jurkat E6.1 Cell Culture and Plating. Jurkat E6.1 cells are cultured according to standard cell culture protocols in Jurkat E6.1 Growth Media (RPMI without phenol red, 10% FBS, 10 mM HEPES, and 1 mM Sodium Pyruvate). Jurkat E6.1 cells are counted using a Coulter Counter and resuspended in Jurkat E6.1 growth media at a concentration of 75,000 cells/35 μL. 35 μL or 75,000 cells is seeded into Greiner microtitre assay plates. The plates are then incubated at 37° C. and 5% CO2 while other assay components are being prepared.
Serially Dilute HDAC Inhibitor Compounds. […]
Assay. […] Finally the top read fluorescence (Excitation: 355 nm, Emission: 460 nm) is measured using PerkinElmer EnVision.

HDAC3 = HDAC3 (Homo sapiens, UniProt O15379); experiment: cat. HDAC3 IC50; format: biochemical
human HDAC9 = target: T2, human HDAC9 (Homo sapiens, UniProt Q9UKV0); experiment: Inhibition of HDAC9, Boc-Lys(Tfa)-AMC substrate; format: biochemical
T2 construct: amino acids 604-1066 with a C-terminal His tag; His (C); purchased BPS BioScience; host or cells: baculovirus expression system

human HDAC7 = target: T3, human HDAC7 (Homo sapiens, UniProt Q8WUI4); experiment: Inhibition of HDAC7, Boc-Lys(Tfa)-AMC substrate; format: biochemical
T3 construct: amino acids 518-end with a N-terminal Glutathione S-transferase (GST) tag; GST (N); purchased BPS BioScience; host or cells: baculovirus expression system
T3 sequence (Q8WUI4 518-952 limits assumed): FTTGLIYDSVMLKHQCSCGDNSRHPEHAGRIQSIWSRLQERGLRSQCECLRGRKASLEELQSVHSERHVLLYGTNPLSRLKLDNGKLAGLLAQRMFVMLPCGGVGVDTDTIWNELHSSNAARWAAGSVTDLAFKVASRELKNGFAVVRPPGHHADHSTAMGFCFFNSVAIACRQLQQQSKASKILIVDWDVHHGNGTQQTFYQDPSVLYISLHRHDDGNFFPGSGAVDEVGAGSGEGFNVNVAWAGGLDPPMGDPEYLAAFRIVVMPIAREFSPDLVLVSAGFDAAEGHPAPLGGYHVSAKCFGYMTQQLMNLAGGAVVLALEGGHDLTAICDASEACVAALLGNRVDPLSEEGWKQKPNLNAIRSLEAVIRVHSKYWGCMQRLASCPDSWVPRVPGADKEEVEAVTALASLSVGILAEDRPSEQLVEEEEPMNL

HDAC6 = target: T4, HDAC6 (Homo sapiens, UniProt Q9UBN7); experiment: cat. HDAC6 IC50; format: biochemical
T4 sequence (Q9UBN7 1-1215): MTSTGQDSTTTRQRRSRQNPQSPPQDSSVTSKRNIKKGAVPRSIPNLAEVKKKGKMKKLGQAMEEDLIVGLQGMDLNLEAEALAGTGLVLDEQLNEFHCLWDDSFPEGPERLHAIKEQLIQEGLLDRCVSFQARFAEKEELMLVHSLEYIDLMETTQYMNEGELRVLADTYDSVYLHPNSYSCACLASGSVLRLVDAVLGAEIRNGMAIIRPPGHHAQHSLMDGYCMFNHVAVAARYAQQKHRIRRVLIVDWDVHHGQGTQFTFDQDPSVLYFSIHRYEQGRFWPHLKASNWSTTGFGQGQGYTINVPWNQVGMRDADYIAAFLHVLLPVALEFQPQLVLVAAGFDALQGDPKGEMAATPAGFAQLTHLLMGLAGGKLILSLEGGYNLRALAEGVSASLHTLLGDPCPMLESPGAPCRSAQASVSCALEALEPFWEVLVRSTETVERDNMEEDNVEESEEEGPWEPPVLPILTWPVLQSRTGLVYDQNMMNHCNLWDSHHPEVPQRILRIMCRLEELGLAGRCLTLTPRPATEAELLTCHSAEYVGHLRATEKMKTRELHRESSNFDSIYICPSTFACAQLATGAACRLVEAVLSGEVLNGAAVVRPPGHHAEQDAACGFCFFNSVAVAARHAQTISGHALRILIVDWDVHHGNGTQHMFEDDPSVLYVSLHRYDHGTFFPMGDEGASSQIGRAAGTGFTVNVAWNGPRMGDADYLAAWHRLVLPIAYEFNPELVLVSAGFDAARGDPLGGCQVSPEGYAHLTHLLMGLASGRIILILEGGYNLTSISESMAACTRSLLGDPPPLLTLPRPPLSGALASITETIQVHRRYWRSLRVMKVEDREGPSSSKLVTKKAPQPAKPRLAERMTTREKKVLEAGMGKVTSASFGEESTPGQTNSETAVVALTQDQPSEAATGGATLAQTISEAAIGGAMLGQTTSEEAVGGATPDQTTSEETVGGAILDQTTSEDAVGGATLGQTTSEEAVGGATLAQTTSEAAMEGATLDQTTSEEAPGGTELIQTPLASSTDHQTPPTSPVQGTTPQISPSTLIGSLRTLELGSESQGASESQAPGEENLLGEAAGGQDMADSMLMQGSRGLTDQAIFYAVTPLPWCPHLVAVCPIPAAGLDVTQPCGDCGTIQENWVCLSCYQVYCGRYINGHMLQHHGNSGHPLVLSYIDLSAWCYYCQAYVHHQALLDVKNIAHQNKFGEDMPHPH

[7] = target: T5, human HDAC5 catalytic domain (Homo sapiens, UniProt Q9UQL6); experiment: Inhibition of HDAC5 catalytic domain, Boc-Lys(Tfa)-AMC substrate; format: biochemical
T5 construct: amino acids 657-1123 with a C-terminal His tag; His (C); purchased BPS BioScience; host or cells: baculovirus expression system

HDAC8 = target: T6, HDAC8 (Homo sapiens, UniProt Q9BY41); experiment: cat. HDAC8 IC50; format: biochemical
T6 sequence (Q9BY41 1-377): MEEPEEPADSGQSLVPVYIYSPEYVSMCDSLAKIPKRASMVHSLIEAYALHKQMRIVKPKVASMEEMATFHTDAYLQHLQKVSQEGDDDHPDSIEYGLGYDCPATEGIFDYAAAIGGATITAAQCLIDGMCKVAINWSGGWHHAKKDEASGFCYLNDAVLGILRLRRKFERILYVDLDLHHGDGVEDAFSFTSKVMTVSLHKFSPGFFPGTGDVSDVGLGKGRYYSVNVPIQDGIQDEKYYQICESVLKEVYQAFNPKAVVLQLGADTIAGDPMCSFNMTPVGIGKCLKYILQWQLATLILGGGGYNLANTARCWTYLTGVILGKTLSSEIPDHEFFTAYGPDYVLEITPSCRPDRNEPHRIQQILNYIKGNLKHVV

[8] = 5 mg eq./Kg, IV PK, brain, read-out: Brain-plasma
[9] = 5 mg eq./Kg, IV PK, muscle section, read-out: Brain-plasma
[10] = 10 mg/Kg, Oral PK, brain, read-out: Brain-plasma
[11] = 10 mg/Kg, Oral PK, muscle, read-out: Muscle-plasma
[12] = Table 3, read-out: IC50 μM (bioch)

T1 sequence (P56524 whole entry): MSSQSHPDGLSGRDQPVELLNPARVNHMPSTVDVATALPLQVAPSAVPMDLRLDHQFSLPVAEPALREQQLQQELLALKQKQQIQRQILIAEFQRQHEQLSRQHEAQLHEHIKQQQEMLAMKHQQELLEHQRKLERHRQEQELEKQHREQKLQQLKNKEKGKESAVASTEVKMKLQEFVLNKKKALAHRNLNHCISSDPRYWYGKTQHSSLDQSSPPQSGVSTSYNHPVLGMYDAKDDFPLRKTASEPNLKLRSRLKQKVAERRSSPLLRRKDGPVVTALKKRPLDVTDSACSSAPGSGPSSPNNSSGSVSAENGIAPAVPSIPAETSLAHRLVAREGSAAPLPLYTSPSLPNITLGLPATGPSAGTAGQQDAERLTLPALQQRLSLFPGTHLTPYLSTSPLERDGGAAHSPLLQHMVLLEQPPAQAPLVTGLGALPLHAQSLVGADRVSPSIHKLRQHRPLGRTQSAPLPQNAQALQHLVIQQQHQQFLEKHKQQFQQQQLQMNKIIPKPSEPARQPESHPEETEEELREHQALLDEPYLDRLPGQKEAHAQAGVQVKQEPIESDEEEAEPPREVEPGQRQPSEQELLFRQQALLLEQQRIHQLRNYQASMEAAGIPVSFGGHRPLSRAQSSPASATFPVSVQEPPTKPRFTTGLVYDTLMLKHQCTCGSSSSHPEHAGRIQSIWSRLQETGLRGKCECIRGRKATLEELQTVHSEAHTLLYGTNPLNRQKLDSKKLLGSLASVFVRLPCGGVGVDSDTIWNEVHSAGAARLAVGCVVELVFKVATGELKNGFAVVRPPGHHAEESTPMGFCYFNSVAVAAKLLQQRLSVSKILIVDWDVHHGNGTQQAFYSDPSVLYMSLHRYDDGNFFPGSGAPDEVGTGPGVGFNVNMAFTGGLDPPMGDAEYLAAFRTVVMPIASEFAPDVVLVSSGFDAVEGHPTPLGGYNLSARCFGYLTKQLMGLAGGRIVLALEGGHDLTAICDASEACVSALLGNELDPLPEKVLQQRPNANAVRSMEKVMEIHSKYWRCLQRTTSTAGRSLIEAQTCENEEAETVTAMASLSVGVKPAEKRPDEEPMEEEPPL
T2 sequence (Q9UKV0 604-1066 isoform Q9UKV0-5): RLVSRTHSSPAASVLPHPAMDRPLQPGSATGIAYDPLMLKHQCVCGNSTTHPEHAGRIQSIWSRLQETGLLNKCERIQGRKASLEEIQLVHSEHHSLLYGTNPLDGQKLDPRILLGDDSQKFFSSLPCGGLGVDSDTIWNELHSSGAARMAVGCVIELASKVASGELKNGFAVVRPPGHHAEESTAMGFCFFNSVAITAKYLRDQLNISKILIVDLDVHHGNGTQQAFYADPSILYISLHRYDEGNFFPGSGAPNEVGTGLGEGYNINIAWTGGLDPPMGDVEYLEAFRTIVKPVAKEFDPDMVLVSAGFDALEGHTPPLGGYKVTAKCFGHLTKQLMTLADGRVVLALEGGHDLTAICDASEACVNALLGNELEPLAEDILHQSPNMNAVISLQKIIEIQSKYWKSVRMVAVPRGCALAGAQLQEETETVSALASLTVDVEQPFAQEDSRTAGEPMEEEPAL
HDAC3, sequence (O15379 whole entry): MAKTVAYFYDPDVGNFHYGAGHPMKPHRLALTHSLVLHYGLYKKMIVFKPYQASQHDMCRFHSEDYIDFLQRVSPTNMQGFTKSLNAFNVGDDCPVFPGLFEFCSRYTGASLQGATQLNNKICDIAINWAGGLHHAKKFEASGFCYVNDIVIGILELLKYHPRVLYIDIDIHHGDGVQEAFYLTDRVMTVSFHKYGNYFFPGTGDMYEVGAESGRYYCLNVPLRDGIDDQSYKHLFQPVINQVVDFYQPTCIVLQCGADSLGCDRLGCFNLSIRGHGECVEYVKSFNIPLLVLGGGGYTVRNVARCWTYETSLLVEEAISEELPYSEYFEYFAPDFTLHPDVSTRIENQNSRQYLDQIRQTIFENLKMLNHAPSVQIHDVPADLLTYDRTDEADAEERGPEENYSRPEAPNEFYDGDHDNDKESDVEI
HDAC3, sequence (Q9Y618 395-489 partner limits assumed): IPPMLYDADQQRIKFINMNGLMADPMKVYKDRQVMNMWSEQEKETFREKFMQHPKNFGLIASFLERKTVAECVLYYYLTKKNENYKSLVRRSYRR
T5 sequence (Q9UQL6 656-1122): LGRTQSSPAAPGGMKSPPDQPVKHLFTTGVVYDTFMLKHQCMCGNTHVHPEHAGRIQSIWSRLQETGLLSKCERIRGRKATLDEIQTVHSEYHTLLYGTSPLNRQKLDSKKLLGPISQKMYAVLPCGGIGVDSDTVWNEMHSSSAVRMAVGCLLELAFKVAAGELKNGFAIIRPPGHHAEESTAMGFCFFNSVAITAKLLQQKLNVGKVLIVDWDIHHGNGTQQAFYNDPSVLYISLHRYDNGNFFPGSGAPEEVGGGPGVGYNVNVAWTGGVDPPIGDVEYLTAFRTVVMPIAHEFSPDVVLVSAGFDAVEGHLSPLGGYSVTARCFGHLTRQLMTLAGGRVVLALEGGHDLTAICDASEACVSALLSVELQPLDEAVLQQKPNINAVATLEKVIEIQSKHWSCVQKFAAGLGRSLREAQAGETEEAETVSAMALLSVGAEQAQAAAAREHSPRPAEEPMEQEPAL

Row | SMILES | half-life ([1]; 5 mg eq./Kg, IV PK, brain) [h] | Kp [1, 8] | half-life ([1]; 5 mg eq./Kg, IV PK, muscle) [h] | Kp [1, 9] | half-life ([1]; 5 mg eq./Kg, IV PK, plasma) [h] | clearance ([1]; 5 mg eq./Kg, IV PK, plasma) [mL/min/kg] | Vd ([1]; 5 mg eq./Kg, IV PK, plasma) [L/kg] | Kp [1, 10] | Kp [1, 11] | AUCnorm ([1]; IV PK, brain) [nM·kg·h/mg] | AUCnorm ([1]; IV PK, muscle) [nM·kg·h/mg] | AUCnorm ([1]; IV PK, plasma) [nM·kg·h/mg] | AUCnorm ([1]; Oral PK, brain) [nM·kg·h/mg] | AUCnorm ([1]; Oral PK, muscle) [nM·kg·h/mg] | AUCnorm ([1]; Oral PK, plasma) [nM·kg·h/mg] | Bioavaiability ([1]; Oral PK, plasma) [%] | Observed CmaxNorm ([1]; Oral PK, plasma) [nM·kg/mg] | IC50 (HDAC4 [2]; [12]) [µM] | MLM [3] [mL/min/kg BW] | Papp A→B at 1 h, 10 μM [4] [×10⁻⁶ cm/s] | also measured
1 | O=C(NO)C(c1ccc(N2CCOCC2)cc1)c1ccccc1F (centres unmarked) | 3.3 | 0.54 to 8.9 | 4.8 | 1.9 to 21 | 1.8 | 123 | 3.1 | 0.67 to 3.4 | 1.5 to 5.2 | 511 | 1048 | 409 | 151 | 260 | 109 | 27 | 95 | 0.07 | 93 | 23.4 | IC50 (HDAC4 [5]): 0.64 µM
2 | Cc1ncc(-c2ccc(C(C(=O)NO)c3ccccc3F)cc2)cn1 (centres unmarked) [Compound 6, 2-(2-fluorophenyl)-N-hydroxy-2-(4-(2-methylpyrimidin-5-yl)phenyl)acetamide] | – | – | – | – | – | – | – | – | – | – | – | – | – | – | – | – | – | – | – | – | IC50 (Boc-Lys(Ac)): > 50000 nM; IC50 [6]: 120 nM
3 | O=C(NO)C(c1ccc(-c2ncc(C(F)(F)F)cn2)cc1)c1ccccc1F (centres unmarked) [Compound 8, 2-(2-fluorophenyl)-N-hydroxy-2-(4-(5-(trifluoromethyl)pyrimidin-2-yl)phenyl)acetamide] | – | – | – | – | – | – | – | – | – | – | – | – | – | – | – | – | – | – | – | – | IC50 (Boc-Lys(Ac)): > 50000 nM; IC50 [6]: 59 nM
4 | O=C(NO)C(c1ccccc1)c1ccc(-c2cncnc2)cc1 (centres unmarked) [drawing 19] | 2.2 | 0.12 to 2 | 4 | 1.1 to 8.9 | 1.8 | 107 | 2.6 | 0.15 to 1.4 | 1 to 8 | 162 | 835 | 516 | 58 | 306 | 179 | 35 | 257 | 0.09 | 77 | 17.5 | half-life ([1]; 10 mg/Kg, Oral PK, brain): 2.7 h; half-life ([1]; 10 mg/Kg, Oral PK, muscle): 4 h; half-life ([1]; 10 mg/Kg, Oral PK, plasma): 1.9 h; IC50 (HDAC4 [5]): 0.55 µM
5 | O=C(NO)C(c1ccccc1)c1ccc(-c2cncnc2)cc1 (centres unmarked) [drawing 21] | – | – | – | – | – | – | – | – | – | – | – | – | – | – | – | – | – | – | – | – | Fold Selectivity (bioch) HDAC3:HDAC4 (HDAC3): 320; IC50 (HDAC4 [2]; Table 4, bioch, read-out: HDAC4): 0.09 µM; Fold Selectivity (bioch) HDAC9:HDAC4 (human HDAC9): 1; Fold Selectivity (bioch) HDAC7:HDAC4 (human HDAC7): 0.8; Fold Selectivity (bioch) HDAC6:HDAC4 (HDAC6): 50; Fold Selectivity (bioch) HDAC5:HDAC4 [7]: 0.3; Fold Selectivity (bioch) HDAC8:HDAC4 (HDAC8): 60
